{"source": "patent US8921555B2", "about": "“Substituted-1,3,8-triazaspiro[4.5]decane-2,4-diones” (Merck Sharp & Dohme Corp., priority 2009, dated 2014)"}
{"molecular_target": "T1, HIF-PHD2 (Homo sapiens, UniProt Q9GZT9)", "T1 construct": "FLAG-tagged full length PHD2 expressed in and purified from baculovirus-infected Sf9 cells; FLAG; made in house; host or cells: baculovirus-infected Sf9 cells", "T1 sequence (Q9GZT9 whole entry)": "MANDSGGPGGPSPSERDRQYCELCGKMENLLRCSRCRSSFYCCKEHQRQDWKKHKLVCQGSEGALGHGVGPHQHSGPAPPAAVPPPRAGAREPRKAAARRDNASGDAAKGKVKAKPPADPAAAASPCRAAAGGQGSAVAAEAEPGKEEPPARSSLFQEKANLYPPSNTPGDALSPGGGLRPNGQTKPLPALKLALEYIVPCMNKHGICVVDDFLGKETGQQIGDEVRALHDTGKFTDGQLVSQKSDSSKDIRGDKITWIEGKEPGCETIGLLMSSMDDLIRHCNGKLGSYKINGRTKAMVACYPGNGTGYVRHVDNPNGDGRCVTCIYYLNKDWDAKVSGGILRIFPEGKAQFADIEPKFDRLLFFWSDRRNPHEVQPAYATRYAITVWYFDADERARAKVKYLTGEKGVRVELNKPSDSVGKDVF", "assay": "Assay for HIF-PHD2 Catalytic Activity (PHD2 Binding Activity)", "assay_type": "biochemical", "conditions": "not given", "units": {"IC50": "nM"}}
{"smiles": "CC(C)Oc1cccc(CN2CC[C@@]3(C[C@@H]2C)C(=O)N(c2ccccc2)C(=O)N3c2cccc(F)c2)c1", "note": "[Egbertson's Example 31]", "IC50": "> 10000"}
{"smiles": "COc1ccnc(N2C(=O)N(c3ccc(-c4ccccc4)cc3)C(=O)C23CCN(Cc2nccn2CC(=O)OC(C)(C)C)CC3)n1", "note": "[Compound 1-19, tert-butyl (2-{[3-biphenyl-4-yl-1-(4-methoxypyrimidin-2-yl)-2,4-dioxo-1,3,8-triazaspiro[4,5]dec-8-yl]methyl}-1H-imidazol-1-yl)acetate]", "IC50": "> 50"}
{"smiles": "Cc1cncc(N2C(=O)N(c3ccc(-c4ccc(C(=O)O)cc4C)cc3)C(=O)C23CCN(Cc2ncccc2C)CC3)n1", "note": "[Compound 7-6, 2-methyl-4′-{1-(6-methylpyrazin-2-yl)-8-[(3-methylpyridin-2-yl)methyl]-2,4-dioxo-1,3,8-triazaspiro[4.5]dec-3-yl}biphenyl-4-carboxylic acid]", "IC50": "0.5 to 20"}
{"smiles": "CCCCOC(=O)c1[nH]cnc1CN1CCC2(CC1)C(=O)N(c1ccc(-c3ccccc3)cc1)C(=O)N2c1nccc(O)n1", "note": "[Compound 1-46, Butyl 4-{[3-biphenyl-4-yl-1-(4-hydroxypyrimidin-2-yl)-2,4-dioxo-1,3,8-triazaspiro[4.5]dec-8-yl]methyl}-1-H-imidazole-5-carboxylate]", "IC50": "20 to 50"}
{"smiles": "COc1ccnc(N2C(=O)N(c3ccc(-c4ccccc4)cc3)C(=O)C23CCN(Cc2nccn2CC(=O)O)CC3)n1", "note": "[Compound 1-21, (2-{[3-biphenyl-4-yl-1-(4-methoxypyrimidin-2-yl)-2,4-dioxo-1,3,8-triazaspiro[4.5]dec-8-yl]methyl}-1H-imidazol-1-yl)acetic acid]", "IC50": "0.5 to 20"}
{"smiles": "CCOC(=O)C1CN(Cc2ncccc2C)CCC12C(=O)N(c1ccc(-c3ccccc3)cc1)C(=O)N2c1cc(OC)ncn1", "note": "(stereo not drawn) [Compound 3-9, Ethyl 3-biphenyl-4-yl-1-(6-methoxypyrimidin-4-yl)-8-[(3-methylpyridin-2-yl)methyl]-2,4-dioxo-1,3,8-triazaspiro[4.5]decane-6-carboxylate]", "IC50": "0.5 to 20"}
{"smiles": "COc1cc(N2C(=O)N(c3ccc(-c4ccc(C(=O)O)cc4)nc3)C(=O)C23CCN(Cc2cc(O)ccn2)CC3)ncn1", "note": "[Compound 10-4, 4-(5-{8-[(4-hydroxypyridin-2-yl)methyl]-1-(6-methoxypyrimidin-4-yl)-2,4-dioxo-1,3,8-triazaspiro[4.5]dec-3-yl}-pyridin-2-yl) benzoic acid]", "IC50": "0.5 to 20"}
{"smiles": "Cc1[nH]cnc1CN1CCC2(CC1)C(=O)N(c1ccc(-c3ccccc3)cc1)C(=O)N2c1cc(O)ncn1", "note": "[Compound 1-53, 3-biphenyl-4-yl-1-(6-hydroxypyrimidin-4-yl)-8-[(5-methyl-1-H-imidazol-4-yl)methyl]-1,3,8-triazaspiro[4.5]decane-2,4-dione]", "IC50": "0.5 to 20"}
{"smiles": "Cc1cccnc1CN1CCC2(C(=O)N(c3ccc(-c4ccccc4)cc3)C(=O)N2c2ncccn2)C(C(=O)O)C1", "note": "(stereo not drawn) [Compound 3-8, 3-biphenyl-4-yl-8-[(3-methylpyridin-2-yl)methyl]-2,4-dioxo-1-pyrimidin-2-yl-1,3,8-triazaspiro[4.5]decane-6-carboxylic acid]", "IC50": "0.5 to 20"}
{"smiles": "CCOC(=O)C1CN(Cc2ncccc2C)CCC12C(=O)N(c1ccc(-c3ccccc3)cc1)C(=O)N2c1nccc(O)n1", "note": "(stereo not drawn) [Compound 3-3, ethyl 3-biphenyl-4-yl-1-(4-hydroxypyrimidin-2-yl)-8-[(3-methylpyridin-2-yl)methyl]-2,4-dioxo-1,3,8-triazaspiro[4.5]decane-6-carboxylate]", "IC50": "0.5 to 20"}
{"smiles": "CCOC(=O)c1ccc(N2C(=O)N(c3nccc(OC)n3)C3(CCN(Cc4ncccc4C)CC3)C2=O)cc1", "note": "[Compound 1-26, ethyl 4-{1-(4-methoxypyrimidin-2-yl)-8-[(3-methylpyridin-2-yl)methyl]-2,4-dioxo-1,3,8-triazaspiro[4.5]dec-3-yl}benzoate]", "IC50": "0.5 to 20"}
{"smiles": "Cc1cccnc1CN1CCC2(CC1)C(=O)N(c1ccc(-c3ccccc3)cc1)C(=O)N2c1cnc(O)cn1", "note": "[Compound 1-45, 3-biphenyl-4-yl-1-(5-hydroxypyrazin-2-yl)-8-[(3-methylpyridin-2-yl)methyl]-1,3,8-triazaspiro[4.5]decane-2,4-dione]", "IC50": "20 to 50"}
{"smiles": "O=C(O)c1[nH]cnc1CN1CCC2(CC1)C(=O)N(c1ccc(-c3ccccc3)cc1)C(=O)N2c1ncccn1", "note": "[Compound 1-64, 4-[(3-biphenyl-4-yl-2,4-dioxo-1-pyrimidin-2-yl-1,3,8-triazaspiro[4.5]dec-8-yl)methyl]-1-H-imidazole-5-carboxylic acid]", "IC50": "0.5 to 20"}
{"smiles": "CC(C)(C)OC(=O)CN1CCC2(CC1)C(=O)N(c1ccc(-c3ccccc3)cc1)C(=O)N2c1cnccn1", "note": "[Compound 2-2, tert-butyl (3-biphenyl-4-yl-2,4-dioxo-1-pyrazin-2-yl-1,3,8-triazaspiro[4.5]dec-8-yl)acetate]", "IC50": "> 50"}
{"smiles": "COc1ccnc(N2C(=O)N(c3ccc(-c4ccccc4)cc3)C(=O)C23CCN(Cc2ncccc2-c2nnn[nH]2)CC3)n1", "note": "[Compound 1-41, 3-biphenyl-4-yl-1-(4-methoxypyrimidin-2-yl)-8-{[3-(1H-tetrazol-5-yl)pyridin-2-yl]methyl}-1,3,8-triazaspiro[4.5]decane-2,4-dione]", "IC50": "> 50"}
{"smiles": "Cc1cccnc1CN1CCC2(CC1)C(=O)N(c1ccc(-c3ccccc3)cc1)C(=O)N2c1ccc(C#N)cn1", "note": "[Compound 1-7, 6-{3-biphenyl-4-yl-8-[(3-methylpyridin-2-yl)methyl]-2,4-dioxo-1,3,8-triazaspiro[4.5]dec-1-yl}nicotinonitrile]", "IC50": "0.5 to 20"}
{"smiles": "Cc1cccnc1CN1CCC2(CC1)C(=O)N(c1ccc(-c3ccccc3)cc1)C(=O)N2c1ccncn1", "note": "[Compound 1-68, 3-biphenyl-4-yl-8-[(3-methylpyridin-2-yl)methyl]-1-pyrimidin-4-yl-1,3,8-triazaspiro[4.5]decane-2,4-dione]", "IC50": "0.5 to 20"}
{"smiles": "COc1cc(OC)nc(N2C(=O)N(c3ccc(-c4ccccc4)cc3)C(=O)C23CCN(Cc2ncccc2C)CC3)n1", "note": "[Compound 1-57, 3-biphenyl-4-yl-1-(4,6-dimethoxypyrimidin-2-yl)-8-[(3-methylpyridin-2-yl)methyl]-1,3,8-triazaspiro[4.5]decane-2,4-dione]", "IC50": "0.5 to 20"}
{"smiles": "Cc1cccnc1CN1CCC2(CC1)C(=O)N(c1ccc(-c3ccccc3)cc1)C(=O)N2c1nc(O)cc(O)n1", "note": "[Compound 1-55, 3-biphenyl-4-yl-1-(4,6-dihydroxypyrimidin-2-yl)-8-[(3-methylpyridin-2-yl)methyl]-1,3,8-triazaspiro[4.5]decane-2,4-dione]", "IC50": "0.5 to 20"}
{"smiles": "COC(=O)c1ccc(-c2ccc(N3C(=O)N(c4ccncn4)C4(CCN(Cc5ncccc5C)CC4)C3=O)cc2)c(C)c1", "note": "[Compound 8-2, methyl 2-methyl-4′-{8-[(3-methylpyridin-2-yl)methyl]-2,4-dioxo-1-pyrimidin-4-yl-1,3,8-triazaspiro[4.5]dec-3-yl}biphenyl-4-carboxylate]", "IC50": "0.5 to 20"}
{"molecular_target": "T1, HIF-PHD2", "assay": "Assay for HIF-PHD2 Catalytic Activity (PHD2 Binding Activity)", "assay_type": "biochemical", "conditions": "read-out: PHD2 Binding Activity IC50", "units": {"IC50": "nM"}}
{"smiles": "Cc1cc(C(=O)O)ccc1-c1ccc(N2C(=O)N(CC(F)(F)F)C3(CCN(Cc4ncccc4C)CC3)C2=O)cn1", "note": "[Compound 11-3, 3-methyl-4-(5-{8-[(3-methylpyridin-2-yl)methyl]-2,4-dioxo-1-(2,2,2-trifluoroethyl)-1,3,8-triazaspiro[4.5]dec-3-yl}-pyridin-2-yl) benzoic acid]", "IC50": "0.5 to 20"}
{"smiles": "Cc1cccnc1CN1CCC2(CC1)C(=O)N(c1ccc(-c3ccccc3)cc1)C(=O)N2C(=O)N[C@@H](CO)C(=O)O", "note": "[Compound 5-6, N-({3-biphenyl-4-yl-8-[(3-methylpyridin-2-yl)methyl]-2,4-dioxo-1,3,8-triazaspiro[4.5]dec-1-yl}carbonyl)-L-serine]", "IC50": "0.5 to 20"}
{"molecular_target": "HIF-PHD1 (Homo sapiens, UniProt Q96KS0)", "sequence (Q96KS0 whole entry)": "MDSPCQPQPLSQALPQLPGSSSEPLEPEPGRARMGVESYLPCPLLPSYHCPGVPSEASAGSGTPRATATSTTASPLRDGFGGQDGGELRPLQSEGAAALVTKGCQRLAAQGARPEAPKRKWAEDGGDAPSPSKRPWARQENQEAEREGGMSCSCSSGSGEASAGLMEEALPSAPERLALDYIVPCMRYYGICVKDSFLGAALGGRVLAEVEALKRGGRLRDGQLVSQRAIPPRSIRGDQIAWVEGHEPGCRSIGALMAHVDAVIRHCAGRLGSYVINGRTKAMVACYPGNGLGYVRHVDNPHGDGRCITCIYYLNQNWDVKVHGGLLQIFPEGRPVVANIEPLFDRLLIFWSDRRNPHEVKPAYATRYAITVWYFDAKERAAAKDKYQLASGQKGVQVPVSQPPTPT", "assay": "Inhibition of the catalytic activity of HIF-PHD1", "assay_type": "biochemical", "conditions": "comparison compounds of WO 2008/030412; read-out: IC50 (nM) HIF-PHD-1", "description": "(§1) To each well of a 96-well plate was added 1 μL of test compound in DMSO and 20 μL of assay buffer (50 mM Tris pH 7.4/0.01% Tween-20/0.1 mg/ml bovine serum albumin/10 μM ferrous sulfate/1 mM sodium ascorbate/20 μg/ml catalase) containing 0.15 μg/ml FLAG-tagged full length PHD2 expressed in and purified from baculovirus-infected Sf9 cells. After a […] at room temperature, the enzymatic reactions were initiated by the addition of 4 μL of substrates (final concentrations of 0.2 μM 2-oxoglutarate and 0.5 μM HIF-1α peptide biotinyl-[…]). After 2 hr at room temperature, the reactions were terminated and signals were developed by the addition of a 25 μL quench/detection mix to a final concentration of 1 mM ortho-phenanthroline, 0.1 mM EDTA, 0.5 nM anti-(His)6 LANCE reagent (Perkin-Elmer Life Sciences), 100 nM AF647-labeled streptavidin (Invitrogen), and 2 μg/ml (His)6-VHL complex (S. Tan(2001) Protein Expr. Purif. 21, 224-234). The ratio of time resolved fluorescence signals at 665 and 620 nm was determined, and percent inhibition was calculated relative to an uninhibited control sample run in parallel.\n(§2) Inhibition of the catalytic activity of HIF-PHD1 and HIF-PHD3 can be determined similarly.", "units": {"IC50": "nM"}}
{"smiles": "CC(C)Oc1cccc(CN2CC[C@@]3(C[C@@H]2C)C(=O)N(c2ccccc2)C(=O)N3c2cccc(F)c2)c1", "note": "[Egbertson's Example 31]", "IC50": "> 10000"}
{"molecular_target": "HIF-PHD3 (Homo sapiens, UniProt Q9H6Z9)", "sequence (Q9H6Z9 whole entry)": "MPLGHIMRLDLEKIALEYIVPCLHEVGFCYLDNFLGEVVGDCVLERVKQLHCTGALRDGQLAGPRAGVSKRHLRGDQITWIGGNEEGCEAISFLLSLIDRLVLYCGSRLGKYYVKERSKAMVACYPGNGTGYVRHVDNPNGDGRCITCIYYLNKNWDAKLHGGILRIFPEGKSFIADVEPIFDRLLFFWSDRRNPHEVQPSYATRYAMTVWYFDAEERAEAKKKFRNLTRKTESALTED", "assay": "Inhibition of the catalytic activity of HIF-PHD3", "assay_type": "biochemical", "conditions": "comparison compounds of WO 2008/030412; read-out: IC50 (nM) HIF-PHD-3", "description": "as §1, §2", "units": {"IC50": "nM"}}
{"smiles": "CC(C)Oc1cccc(CN2CC[C@@]3(C[C@@H]2C)C(=O)N(c2ccccc2)C(=O)N3c2cccc(F)c2)c1", "note": "[Egbertson's Example 31]", "IC50": "> 10000"}
